Assay results published in the NIST ThermoML archive (doi:10.1021/acs.jced.5b00932).
± gives the expanded uncertainty stated by the source. Each block holds one compound with its values, some of them ahead of it.

Experiment: wn = mass fraction of the nth substance listed
Conditions: 298.15 K, 101 kPa, Liquid, Pycnometric method

- mass density (w1 = 0.3108): 1314.6 ± 2.2 kg/m3
Compound: [Cl][Al]([Cl])[Cl] [aluminum chloride] + O

- mass density (w1 = 0.4647): 1456.1 ± 2.3 kg/m3
Compound: [Ca+2].[Cl-].[Cl-] [calcium chloride] + O

- mass density (w1 = 0.5069): 1521.5 ± 3.3 kg/m3
Compound: [Cl][Fe]([Cl])[Cl] [ferric chloride] + O
